Experimental data: US20230140290A1, “SALICYLAMIDE DERIVATIVES AND RELATED METHODS OF MAKING” (THE BOARD OF REGENTS OF THE UNIVERSITY OF TEXAS SY, priority 2020, published 2023)
Where two headings read alike, the source gives them in different places.

Tests used:
[1] = tested on: A549 cells; experiment: Cytotoxicity assay (AlamarBlue); settings: read-out: CC50 (μM), cytotoxic concentration 50%; A549 cell line, 48 h
Procedure: (§1) Cytotoxicity Assay. The cytotoxicity of the compounds was analyzed by commercial kit AlamarBlue® (Invitrogen, Ref. DAL1025). A549 cells at a density of 5×10^3 cells per well in 96-well plates were seeded. […] Cells were then incubated at 37° C. for 48 h following the kit protocol. The cytotoxic concentration 50 (CC50) value was obtained using the statistical package GraphPad Prism. This assay was performed in duplicate.

[2] = tested on: HAdV5-GFP; experiment: Time of addition assay; assay type: cell-based, HAdV-5; settings: for inhibition at 0.78 µM: FIG. 10
Procedure: (§2) Time of Addition Curve Study. […] Parallel samples of HAdV-5 were incubated with or without the selected derivatives on ice for 1 h. […] The derivatives were added at the indicated time points before or during this incubation. After a total of 2 h at 37° C., cells were incubated for an additional 48 h at 37° C. and 5% CO2 before being analyzed for GFP expression using the Typhoon 9410 imager (GE Healthcare Life Sciences) as above.
as §2, with “Assay.” for “Curve Study.”
as §2, with “Assay.” for “Curve Study.”, “compounds” for “derivatives”, “Compounds 153 and 161” for “The derivatives”

[3] = Cytotoxicity assay (AlamarBlue); settings: human, A549 cells
Procedure: as §1

[4] = tested on: HAdV; experiment: Combination study (Chou-Talalay, CalcuSyn) in plaque assay; assay type: cell-based
Text: Synergistic Activity of Selected Derivatives. […] To assess this hypothesis, we conducted a combination study based on the Chou-Talalay method for drug combination using the CalcuSyn software (Chou, and Talalay, Adv. Enzyme Regul. 1984, 22, 27-55; Matthews et al., PLoS One. 2017, 12, e0173303) using those compounds with lower IC50 in the plaque assay and higher SI, compound 87 from this work and compounds 17 (JMX0312), 58 (JMX0281) from our first library of derivatives. The constant ratio for each combination was selected based on the IC50 values for each drug.
Synergistic Activity of Selected Compounds. […] To evaluate, a combination study was conducted based on the Chou-Talalay method for drug combination using the CalcuSyn software. The constant ration for each combination was selected based on the IC50 values for each drug.

[5] = Maximum tolerated dose (MTD); settings: female, Syrian, hamster, in vivo, ip
Procedure: Maximum tolerated dose (MTD). […] Before dosing, compounds were diluted in 10% DMSO, 10% Cremophor EL and 80% sodium chloride physiological solution. […] At day 14 animals were sacrificed with a lethal dose of thiopental. All inoculations were done via intraperitoneal.

[6] = tested on: HCMV; experiment: HCMV DNA quantification by real-time PCR; assay type: cell-based, human cytomegalovirus; settings: HFF cells, 72 h, 10-fold plaque IC50 (niclosamide 5 μM)
Procedure: HCMV DNA Quantification by Real-Time PCR. […] Then, cells were incubated for 72 h at 37° C. and 5% CO2 and HCMV DNA was purified from the cell lysate using the QIAamp DNA Mini Kit (Qiagen, Valencia, Calif.) following the manufacturer's instructions. Real-time PCR primers, mixtures and protocols were the same as previously reported (Sanchez-Cespedes et al., J. Med. Chem. 2016, 59, 5432-5448).

[7] = tested on: HAdV-5; experiment: Thermostability assay (HAdV capsid uncoating); assay type: cell-based; settings: FIG. 12; 50 μM, 24 h post-infection
Text: The studies described above delineate the step of infection that is targeted by 161; however, the precise molecular mechanism involved in its antiviral activity remained to be established. One alternative mode of action was that 161 could block HAdV-mediated lysis of the endosome by stabilizing the virus capsid, thereby preventing uncoating. Indeed, human defensins and neutralizing antibodies have been previously shown to act through this mechanism (Smith et al., Cell Host Microbe, 2008, 3, 11-19). To determine whether 161 impacts HAdV uncoating, we used a thermostability assay that mimics virus disassembly in the endosome, which was previously described by Wiethoff et al., (Wiethoff et al., J. Virol. 2005, 79, 1992-2000), with a few modifications. In this assay, temperatures above 48° C. promote selective removal of the virus vertex region. HAdV-5 was incubated with or without 50 μM concentrations of 161 at temperatures from 37° C. to 52° C. and then added to cells to evaluate the viability of the viruses. […] Upon heating HAdV-5 to 48° C. or above, in those non-treated with compound 161, there was no GFP expression 24 h post-infection.

[8] = tested on: HAdV5; experiment: HAdV-mediated endosome disruption (α-sarcin co-delivery assay); assay type: cell-based, HAdV-5; settings: FIG. 11; virus below 12 ng; similar to ts1 mutant
[9] = combination 17 & 58 (1:2.5), read-out: IC50 combination
[10] = combination 17 & 87 (1:1.5), read-out: IC50 combination
[11] = derivative alone, read-out: IC50 Single
[12] = 0 h, FIG. 2, read-out: inhibition of HAdV infection after addition at the moment of the infection (0 min)
[13] = combination 87 & 58 (1:1.7), read-out: IC50 combination

Compound | CC50 [1] [µM] | CC50 at 48 h [3] [nM] | IC50 [4, 9] [nM] | IC50 [4, 10] [nM] | IC50 [4, 11] [nM] | MTD at 14 days [5] [mg/kg] | inhibition at 10 µM [2, 12] [%] | IC50 [4, 13] [nM] | other results
O=C(Nc1ccc([N+](=O)[O-])cc1F)c1cc(Cl)ccc1O [Compound 11, 5-Chloro-N-(2-fluoro-4-nitrophenyl)-2-hydroxybenzamide] | 10.9 |  |  |  |  |  |  |  | loss of inhibition when added between 20 and 40 p.i. ([2]; FIG. 2, 5 μM): 34%
O=C(Nc1cc(F)cc(C(F)(F)F)c1)c1cc(Cl)ccc1O [Compound 17, 5-Chloro-N-(3-fluoro-5-(trifluoromethyl)phenyl)-2-hydroxybenzamide] |  | 120000 ± 33600 | 100 ± 10 | 90 | 180 ± 10 | 12.5 | < 50 |  | 
CC(C)[C@H](NC(=O)c1cc(Cl)ccc1O)C(=O)Nc1ccc([N+](=O)[O-])cc1Cl [Compound 58, (S)-5-Chloro-N-(1-((2-chloro-4-nitrophenyl)amino)-3-methyl-1-oxobutan-2-yl)-2-hydroxybenzamide] |  | 200000 | 250 ± 20 |  | 450 ± 60 | 50 | < 50 | 500 ± 40 | 
O=C(N[C@H](Cc1ccccc1)C(=O)Nc1ccc([N+](=O)[O-])cc1Cl)c1cc(Cl)ccc1O [Compound 60, (R)-5-Chloro-N-(1-((2-chloro-4-nitrophenyl)amino)-1-oxo-3-phenylpropan-2-yl)-2-hydroxybenzamide] | 77.9 |  |  |  |  |  |  |  | inhibition at 10 µM ([2]; 20 min, read-out: inhibition of HAdV infection when added after 20 min p.i., FIG. 2): < 50%
CC1(Nc2ccc(NC(=O)c3cc(Cl)ccc3O)c(Cl)c2)CCCC1 [Compound 87, 5-Chloro-N-(2-chloro-4-((1-methylcyclopentyl)amino)phenyl)-2-hydroxybenzamide] | 157 |  |  | 140 | 270 ± 160 | 150 |  | 300 ± 20 | decrease of total HCMV DNA compared to the DMSO control [6]: no significant inhibition
O=C(NCC1CCCCC1)c1cc(Cl)ccc1O [Compound 161, 5-Chloro-N-(cyclohexylmethyl)-2-hydroxybenzamide] |  |  |  |  |  |  |  |  | GFP expression of viruses heated to 48° C. [7]: significant levels of GFP expression; GFP expression of viruses heated to 52° C. [7]: some residual expression; HAdV-mediated endosome lysis [8]: prevented HAdV-mediated endosome lysis; inhibition at 0.78 µM ([2]; 0 h, read-out: inhibitory activity at 0 min post-infection): 95.3%; inhibition at 0.78 µM ([2]; 20 min, read-out: inhibitory activity at 20 min p.i.): 30.7%
